Assay results from article PMC7217150, “Synthesis, Modification, and Biological Evaluation of a Library of Novel Water‐Soluble Thiopyridone‐Based Organometallic Complexes and Their Unexpected (Biological) Behavior” (Chemistry (Weinheim an Der Bergstrasse, Germany), 2020).
Read-outs that look alike come from different tables or passages of the source.

How the values were obtained:
A549 [1] = experiment: MTT cytotoxicity assay, monolayer culture; type: cell-based, human; details: exposure time 96 h, means ± SDs
CH1/PA‐1 [2] = experiment: MTT cytotoxicity assay, monolayer culture; type: cell-based, human; details: CH1/PA‐1, MTT assay, exposure time 96 h, means ± SDs
SW480 [3] = experiment: MTT cytotoxicity assay, monolayer culture; type: cell-based, human
[4] = test system: human cancer cell lines CH1/PA‐1, SW480, A549; details: tested cancer cell lines
Method: Cytotoxicity of the compounds in monolayer cultures was determined by the colorimetric MTT assay (MTT=3‐(4,5‐dimethyl‐2‐thiazolyl)‐2,5‐diphenyl‐2H‐tetrazolium bromide). 1×10^3 CH1/PA‐1, 2×10^3 SW480 and 3×10^3 A549 cells were seeded in 100 μL supplemented MEM per well into 96‐well flat‐bottom microculture plates. […] After 96 h, the drug‐containing medium was replaced with 100 μL of RPMI 1640/MTT mixture [6 parts of RPMI 1640 medium (supplemented with 10 % heat‐inactivated fetal bovine serum and 4 mM L‐glutamine), 1 part of MTT solution in phosphate‐buffered saline (5 mg mL^−1)]. After incubation for 4 h, the mixture was replaced with 150 μL DMSO per well to dissolve the formazan product formed by viable cells. Optical densities at 550 nm (and at a reference wavelength of 690 nm) were measured with a microplate reader (ELx808, Bio‐Tek).

[5] = pH 5.8
Method: In order to investigate a possible pH influence on complex stability and to gather further insights into the instability of the osmium complexes, UHPLC kinetic measurements were carried out at pH values of 5.8, 6.2, 6.7, 7.2 and 7.9 in phosphate buffered solution via UHPLC. […] Due to pump pressure fluctuations the retention times tended to shift ±0.18 min.
Stock solutions containing the desired complex in DMSO (5 mM) were diluted with phosphate buffer to a final concentration of 50 μM compound in 1 % DMSO/20 mM buffer and directly analyzed via gradient UHPLC runs over 24 h. Phosphate buffers at pH 5.8, 6.2, 6.7, 7.2 and 7.9 were employed to ensure a constant pH value. The instrument was set to 0.6 mL min^−1 flow rate, 37 °C sampler temperature, 25 °C column compartment, 225 nm detection wavelength, 95 % MeOH in MiliQ water +0.1 % formic acid over 7.0 min.

[6] = 1H NMR kinetics in D2O/1 % [D6]DMSO, repeated 1:1 dilution
Method: In order to elucidate the fate of complex 4 c* and a possible concentration effect on its stability, additional NMR and MS experiments were carried out. […] Consequently, the sample was diluted 1:1 (3 mg mL^−1) and kinetics were measured over 24 h a second time. This step was repeated six times in total (after 24, 48, 72, 96, 168, and 192 h; resulting in a final concentration of 176 μM). […] It was impossible to measure 2D NMR sets throughout the experiment, due to the low sample concentration.

[7] = pH 7.2
Method: Stock solutions containing the desired complex in DMSO (5 mM) were diluted with phosphate buffer (pH 7.2) to a final concentration of […] compound in 1 % DMSO/20 mM buffer and directly analyzed by four different isocratic UHPLC runs (Δ=5 %). The lipophilicity parameters logkw and lipophilicity indices φ0 were calculated according to literature.7, 37

HCT‐116 = HCT‐116 multicellular spheroids, 96 h drug exposure
Method: (§1) A549, CH1/PA‐1 and SW480 cells were grown in MEM supplemented with 10 % fetal calf serum (FCS; from Biowest), 1 mM sodium pyruvate, 4 mM L‐glutamine and 1 % v/v nonessential amino acids (from 100×solution) and L‐glutamine. HCT‐116 cells were maintained in McCoy's 5a medium supplemented with 10 % FCS and L‐glutamine. Adherent monolayer cultures were grown in 75 cm^2 flasks. For spheroid culture, A549, CH1/PA‐1 and HCT‐116 cells were harvested from culture flasks by trypsinization, resuspended in their respective supplemented medium and seeded in ultra‐low attachment round‐bottom 96‐well plates (Corning Costar) at a density of 500 viable cells per well. Plates were incubated for 96 h to allow spheroid formation prior to use for the tests. All cultures were incubated in a humidified incubator at 37 °C with 5 % CO2.
(§2) Cytotoxicity in multicellular spheroids was determined by the fluorimetric resazurin assay. […] After incubation for 96 h, 20 μL of a 440 μM resazurin sodium salt solution in PBS were added to each well, and the plates were incubated for further 16 h. Fluorescence was measured with a Synergy HT reader (BioTek) with an excitation wavelength of 530 nm and emission wavelength of 590 nm. For both assays, at least three independent experiments (or two in case of poor activity) were performed, each with triplicates per concentration level, and the 50 % inhibitory concentrations (IC50) relative to untreated controls were interpolated from concentration‐effect curves.

A549 [8] = details: A549 multicellular spheroids, 96 h drug exposure
Method: as §1, §2

CH1/PA‐1 [9] = details: CH1/PA‐1 multicellular spheroids, 96 h drug exposure
Method: as §1, §2

CH1/PA‐1 [10] = experiment: Cell cycle distribution, flow cytometry with propidium iodide; type: cell-based, human; details: for Cell cycle distribution G1, % / Cell cycle distribution G2/M, % / Cell cycle distribution S, %: 24 h, mean ± SD; for Relative change in cell cycle distribution G1, % / Relative change in cell cycle distribution G2/M, % / Relative change in cell cycle distribution S, %: difference to untreated control; for decrease in G1 phase: CH1/PA‐1 cells
In short: (§3)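 CH1/PA-1 and SW480 cells were allowed to attach for 24 h, then exposed continuously to compounds for 24 h at 37 °C. Nuclei were stained overnight at 4 °C with propidium iodide (50 μg mL^−1) in Triton/citrate buffer. 5×10^3 cells were analysed by flow cytometry, with G1/S/G2/M fractions fitted by the Watson Pragmatic model.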

SW480 [11] = experiment: as above; type: cell-based, human; details: for Cell cycle distribution G1, % / Cell cycle distribution G2/M, % / Cell cycle distribution S, %: 24 h, mean ± SD; for Relative change in cell cycle distribution G1, % / Relative change in cell cycle distribution G2/M, % / Relative change in cell cycle distribution S, %: difference to untreated control
In short: as §3

A549 [12] = details: A549, MTT assay, 96 h; cited from earlier work
SW480 [13] = details: SW480, MTT assay, 96 h; cited from earlier work
CH1/PA‐1 [14] = details: CH1/PA‐1, MTT assay, 96 h; cited from earlier work
[15] = SW480, MTT assay, exposure time 96 h, means ± SDs

Compound: Cc1c([O-])c(=S)ccn1Cc1ccccc1.Cc1ccc(C(C)C)cc1.[Cl-].[Os+2] [Compound 4 c, Chlorido[1‐benzyl‐2‐methyl‐3‐(oxo‐κO)‐pyridine‐4(1H)‐thionato‐κS](η^6‐p‐cymene)osmium(II)]
- IC50 (A549 [1]): 2200 ± 1200 nM
- IC50 (CH1/PA‐1 [2]): 1300 ± 200 nM
- IC50 (SW480 [3]; [15]): 5.6 ± 0.7 µM
- IC50 values, in words [4]: low micromolar range
- stability by UHPLC [5]: stable over 24 h
- dilution at which formation of a second species became apparent [6]: 375 µg/mL

Compound: Cc1c([O-])c(=S)ccn1Cc1ccccc1.Cc1ccc(C(C)C)cc1.[Cl-].[Ru+2] [Compound 3 c, Chlorido[1‐benzyl‐2‐methyl‐3‐(oxo‐κO)‐pyridine‐4(1H)‐thionato‐κS](η^6‐p‐cymene)ruthenium(II)]
- IC50 (A549 [1]): 1300 ± 100 nM
- IC50 (CH1/PA‐1 [2]): 1040 ± 30 nM
- IC50 (SW480 [3]; [15]): 3.1 ± 0.2 µM
- IC50 (SW480 [3]; SW480, as listed in Table 3): 3.06 ± 0.2 µM
- IC50 values, in words [4]: low micromolar range
- intracellular accumulation relative to 3 a, in words (SW480 cells): seven times as high
- Cellular accumulation (SW480 cells; ICP‐MS, 2 h exposure, 50 μM): 147±54 fg/cell
- φ0 (chromatographic lipophilicity index) [7]: 6.04
- IC50 (HCT‐116): 211 ± 28 µM
- IC50 (A549 [8]): 287 ± 3 µM
- IC50 (CH1/PA‐1 [9]): 242 ± 11 µM
- Cell cycle distribution G1, % (CH1/PA‐1 [10]; CH1/PA-1, 2.5 µM): 30 ± 1%
- Cell cycle distribution G2/M, % (CH1/PA‐1 [10]; CH1/PA-1, 2.5 µM): 23 ± 6%
- Cell cycle distribution S, % (CH1/PA‐1 [10]; CH1/PA-1, 2.5 µM): 47 ± 8%
- Relative change in cell cycle distribution G1, % (CH1/PA‐1 [10]; CH1/PA-1, 2.5 µM): -10%
- Relative change in cell cycle distribution G2/M, % (CH1/PA‐1 [10]; CH1/PA-1, 2.5 µM): -1%
- Relative change in cell cycle distribution S, % (CH1/PA‐1 [10]; CH1/PA-1, 2.5 µM): 11%
- Cell cycle distribution G1, % (CH1/PA‐1 [10]; CH1/PA-1, 5 µM): 27 ± 3%
- Cell cycle distribution G2/M, % (CH1/PA‐1 [10]; CH1/PA-1, 5 µM): 30 ± 3%
- Cell cycle distribution S, % (CH1/PA‐1 [10]; CH1/PA-1, 5 µM): 43 ± 3%
- Relative change in cell cycle distribution G1, % (CH1/PA‐1 [10]; CH1/PA-1, 5 µM): -13%
- Relative change in cell cycle distribution G2/M, % (CH1/PA‐1 [10]; CH1/PA-1, 5 µM): 6%
- Relative change in cell cycle distribution S, % (CH1/PA‐1 [10]; CH1/PA-1, 5 µM): 7%
- Cell cycle distribution G1, % (CH1/PA‐1 [10]; CH1/PA-1, 10 µM): 24 ± 6%
- Cell cycle distribution G2/M, % (CH1/PA‐1 [10]; CH1/PA-1, 10 µM): 30 ± 7%
- Cell cycle distribution S, % (CH1/PA‐1 [10]; CH1/PA-1, 10 µM): 47 ± 4%
- Relative change in cell cycle distribution G1, % (CH1/PA‐1 [10]; CH1/PA-1, 10 µM): -16%
- Relative change in cell cycle distribution G2/M, % (CH1/PA‐1 [10]; CH1/PA-1, 10 µM): 6%
- Relative change in cell cycle distribution S, % (CH1/PA‐1 [10]; CH1/PA-1, 10 µM): 11%
- decrease in G1 phase (CH1/PA‐1 [10]; 2.5 μM): 10%
- decrease in G1 phase (CH1/PA‐1 [10]; 10 μM): about 16%
- Cell cycle distribution G1, % (SW480 [11]; SW480, 2.5 µM): 45 ± 3%
- Cell cycle distribution G2/M, % (SW480 [11]; SW480, 2.5 µM): 17 ± 4%
- Cell cycle distribution S, % (SW480 [11]; SW480, 2.5 µM): 38 ± 6%
- Relative change in cell cycle distribution G1, % (SW480 [11]; SW480, 2.5 µM): -3%
- Relative change in cell cycle distribution G2/M, % (SW480 [11]; SW480, 2.5 µM): -2%
- Relative change in cell cycle distribution S, % (SW480 [11]; SW480, 2.5 µM): 5%
- Cell cycle distribution G1, % (SW480 [11]; SW480, 5 µM): 44 ± 2%
- Cell cycle distribution G2/M, % (SW480 [11]; SW480, 5 µM): 20 ± 3%
- Cell cycle distribution S, % (SW480 [11]; SW480, 5 µM): 36 ± 0%
- Relative change in cell cycle distribution G1, % (SW480 [11]; SW480, 5 µM): -4%
- Relative change in cell cycle distribution G2/M, % (SW480 [11]; SW480, 5 µM): 1%
- Relative change in cell cycle distribution S, % (SW480 [11]; SW480, 5 µM): 3%
- Cell cycle distribution G1, % (SW480 [11]; SW480, 10 µM): 48 ± 7%
- Cell cycle distribution G2/M, % (SW480 [11]; SW480, 10 µM): 21 ± 4%
- Cell cycle distribution S, % (SW480 [11]; SW480, 10 µM): 32 ± 7%
- Relative change in cell cycle distribution G1, % (SW480 [11]; SW480, 10 µM): 0%
- Relative change in cell cycle distribution G2/M, % (SW480 [11]; SW480, 10 µM): 2%
- Relative change in cell cycle distribution S, % (SW480 [11]; SW480, 10 µM): -1%
- decrease in G1 phase (SW480 [11]; SW480 cells, at applicable concentrations): < 9%

Compound: [Cl][Ru-]([Cl])([Cl])[Cl].[Na+].c1ccc2[nH]ncc2c1.c1ccc2[nH]ncc2c1 [BOLD‐100]
- IC50 (A549 [12]): 156 ± 11 µM
- IC50 (SW480 [13]): 62 ± 9 µM
- IC50 (CH1/PA‐1 [14]): 50 ± 6 µM
